According to PubChem BioAssay (NCI):
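Grown in 96-well plates, cells were treated for 48 hours with each compound at five concentrations. Insufficient inhibition: endpoint recorded as highest concentration tested. GI50 = concentration required for 50% inhibition of growth. TGI marks complete inhibition of growth.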

What was measured:
Experiment in all cases: growth of human tumour cells (NCI), 48 h
A498 renal = test system: A498 renal
SF-539 CNS = test system: SF-539 CNS
M14 melanoma = test system: M14 melanoma
A549 NSCLC = test system: A549 NSCLC
786-0 renal = test system: 786-0 renal
TK-10 renal = test system: TK-10 renal
PC-3 prostate = test system: PC-3 prostate
NCI-H23 lung = test system: NCI-H23 lung
HCC-2998 colon = test system: HCC-2998 colon
DU-145 prostate = test system: DU-145 prostate
LOX IMVI melanoma = test system: LOX IMVI melanoma
CCRF-CEM leukemia = test system: CCRF-CEM leukemia
SK-MEL-2 melanoma = test system: SK-MEL-2 melanoma
OVCAR-8 ovarian = test system: OVCAR-8 ovarian
CAKI-1 renal = test system: CAKI-1 renal
SNB-19 CNS = test system: SNB-19 CNS
MDA-MB-231 breast = test system: MDA-MB-231 breast
SN12C renal = test system: SN12C renal
ACHN renal = test system: ACHN renal
SK-MEL-28 melanoma = test system: SK-MEL-28 melanoma
SNB-75 CNS = test system: SNB-75 CNS
NCI/ADR-RES ovarian = test system: NCI/ADR-RES ovarian
UACC-62 melanoma = test system: UACC-62 melanoma
NCI-H226 lung = test system: NCI-H226 lung
OVCAR-4 ovarian = test system: OVCAR-4 ovarian
SK-OV-3 ovarian = test system: SK-OV-3 ovarian
SR leukemia = test system: SR leukemia
NCI-H522 lung = test system: NCI-H522 lung
UACC-257 melanoma = test system: UACC-257 melanoma
BT-549 breast = test system: BT-549 breast

CC(=O)Nc1ccc(-c2cn(-c3cccc(C(=O)Nc4ccc(F)c(C(F)(F)F)c4)c3)nn2)cn1
TGI (A498 renal): 43.4 µM
GI50 (SF-539 CNS): 15.1 µM
TGI (SF-539 CNS): 28.5 µM
GI50 (M14 melanoma): 15 µM
TGI (M14 melanoma): 41.3 µM
GI50 (A549 NSCLC): 25.2 µM
TGI (A549 NSCLC): 68.5 µM
GI50 (786-0 renal): 2.6 µM
TGI (786-0 renal): 11.1 µM
GI50 (TK-10 renal): 23.7 µM
TGI (TK-10 renal): 41.1 µM
GI50 (PC-3 prostate): 16 µM
TGI (PC-3 prostate): 38.1 µM
GI50 (NCI-H23 lung): 14.8 µM
TGI (NCI-H23 lung): 28.8 µM
GI50 (HCC-2998 colon): 16.9 µM
TGI (HCC-2998 colon): 32.6 µM
GI50 (DU-145 prostate): 27 µM
TGI (DU-145 prostate): 79.3 µM
GI50 (LOX IMVI melanoma): 13.8 µM
TGI (LOX IMVI melanoma): 26.7 µM
GI50 (CCRF-CEM leukemia): 22.2 µM
TGI (CCRF-CEM leukemia): 71.5 µM
GI50 (SK-MEL-2 melanoma): 16.6 µM
TGI (SK-MEL-2 melanoma): 34.4 µM
GI50 (OVCAR-8 ovarian): 28 µM
TGI (OVCAR-8 ovarian): 89.8 µM
GI50 (CAKI-1 renal): 17.3 µM
TGI (CAKI-1 renal): 32.7 µM
GI50 (SNB-19 CNS): 19.5 µM
TGI (SNB-19 CNS): 34.9 µM
GI50 (MDA-MB-231 breast): 11.2 µM
TGI (MDA-MB-231 breast): 24.1 µM
GI50 (SN12C renal): 16.1 µM
TGI (SN12C renal): 30.4 µM
GI50 (ACHN renal): 15.7 µM
TGI (ACHN renal): 30.1 µM
GI50 (SK-MEL-28 melanoma): 14.6 µM
TGI (SK-MEL-28 melanoma): 28 µM
GI50 (SNB-75 CNS): 13.8 µM
TGI (SNB-75 CNS): 35.7 µM
GI50 (NCI/ADR-RES ovarian): 27.5 µM
TGI (NCI/ADR-RES ovarian): 89.1 µM
GI50 (UACC-62 melanoma): 14.2 µM
TGI (UACC-62 melanoma): 27.6 µM
GI50 (NCI-H226 lung): 18.4 µM
TGI (NCI-H226 lung): 36.3 µM
GI50 (OVCAR-4 ovarian): 20.3 µM
TGI (OVCAR-4 ovarian): 40.9 µM
GI50 (SK-OV-3 ovarian): 20.7 µM
TGI (SK-OV-3 ovarian): 45.4 µM
GI50 (SR leukemia): 31 µM
TGI (SR leukemia): > 100 µM
GI50 (NCI-H522 lung): 17.7 µM
TGI (NCI-H522 lung): 38.1 µM
GI50 (UACC-257 melanoma): 17.6 µM
TGI (UACC-257 melanoma): 38.6 µM
GI50 (BT-549 breast): 13.2 µM
TGI (BT-549 breast): 30.9 µM
